50 compounds from US20100022531A1, “NOVEL COMPOUNDS AS P2X7 MODULATORS AND USES THEREOF” (RENOVIS, INC., priority 2005, published 2010) can be followed below.

Molecules are shown by their SMILES.

One test concerns the target T1, P2X7 receptor (Homo sapiens, UniProt Q99572).
T1 construct: host or cells: THP-1 cells differentiated with LPS and IFN-γ
T1 sequence (Q99572 1-595): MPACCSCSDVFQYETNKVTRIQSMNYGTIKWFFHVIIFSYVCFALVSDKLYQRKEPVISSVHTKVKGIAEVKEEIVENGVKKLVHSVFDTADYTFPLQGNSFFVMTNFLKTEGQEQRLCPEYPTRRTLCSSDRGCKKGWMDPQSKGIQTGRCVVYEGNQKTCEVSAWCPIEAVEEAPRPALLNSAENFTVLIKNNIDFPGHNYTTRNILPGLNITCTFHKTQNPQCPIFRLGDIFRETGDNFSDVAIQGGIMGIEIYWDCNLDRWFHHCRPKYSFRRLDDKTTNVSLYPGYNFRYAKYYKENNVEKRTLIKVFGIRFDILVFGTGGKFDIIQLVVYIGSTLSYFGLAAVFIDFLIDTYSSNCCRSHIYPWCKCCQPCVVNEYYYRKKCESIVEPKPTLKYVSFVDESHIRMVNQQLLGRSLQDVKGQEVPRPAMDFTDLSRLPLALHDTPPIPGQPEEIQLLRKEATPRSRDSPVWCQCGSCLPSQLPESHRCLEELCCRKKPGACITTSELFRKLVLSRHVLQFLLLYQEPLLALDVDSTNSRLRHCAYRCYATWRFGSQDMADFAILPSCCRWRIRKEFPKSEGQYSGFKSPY
The experiment in a line: Alternate method for IL-1β release assay (differentiated THP-1 cells, BzATP-stimulated, ELISA). It counts as cell-based. The settings on record: P2X7, read-out: IL-1β % inhib @ 0.3 μM. Here is the method:
Alternate Method for IL-1β Release Assay
THP-1 cells (ATCC Cat #285-IF-100) are plated in 96 well plates at a concentration of 200,000 cells per well and allowed to differentiate in RPMI-1640 media (ATCC Cat #30-2001) containing 10% FBS, 100 IU/mL penicillin, 100 ug/mL streptomycin, 100 ng/mL LPS and 100 ng/mL IFN-γ for 16 hours. Following differentiation, the cells are treated for an additional 2 hours in RPMI-1640 media containing 100 IU/mL penicillin, 100 ug/mL streptomycin and fresh LPS at 100 ng/mL. The cells are then pretreated for 30 minutes with the compound of interest at the appropriate concentration in RPMI media containing 100 IU/mL penicillin, 100 ug/mL streptomycin. Following the pretreatment 2′,3′-O-(4-benzoylbenzoyl)-adenosine 5′-triphosphate (Sigma Aldrich Cat# B6396) is added to a final concentration of 250 uM and the cells incubated for an additional 45 minutes. 30 uL of cell supernatant is then collected and IL-1β levels determined via ELISA (R&D systems Cat. # HSLB50) according to manufacturers recommendations using the Tecan Safire plate reader. Background adjusted IL-1β levels of drug treated and non-treated cells are used to calculate the percent inhibition.
For orientation: An ELISA detects its analyte on a solid surface through an enzyme-linked reagent.
For `O=S(=O)(c1ccccc1)N1CCc2c(ncnc2NCC23CC4CC(CC(C4)C2)C3)C1` [Compound 4, Adamantan-1-ylmethyl-(7-benzenesulfonyl-5,6,7,8-tetrahydro-pyrido[3,4-d]pyrimidin-4-yl)-amine], the inhibition at 0.3 µM was in the range of 50 to 75%.

The same test, now with this note: P2X7; 0.1 μM compound (plus symbols); read-out: IL-1β % inhib @ 0.1 μM.
As for `c1ccc(CN2CCc3c(ncnc3NCC34CC5CC(CC(C5)C3)C4)C2)cc1` [Compound 1, Adamantan-1-ylmethyl-(7-benzyl-5,6,7,8-tetrahydro-pyrido[3,4-d]pyrimidin-4-yl)-amine], the inhibition at 0.1 µM is over 75%.

For the compound `CCS(=O)(=O)N1CCc2c(ncnc2NCC23CC4CC(CC(C4)C2)C3)C1` [Compound 9], the inhibition at 0.1 µM is over 75%.

`O=S(=O)(c1ccccc1F)N1CCc2c(ncnc2NCC23CC4CC(CC(C4)C2)C3)C1` [Compound 24]: the inhibition at 0.1 µM was over 75%.

Consider `O=S(=O)(c1ccc(Oc2ccccc2)cc1)N1CCc2c(ncnc2NCC23CC4CC(CC(C4)C2)C3)C1` [Compound 47], for which the inhibition at 0.1 µM lay in the range of 50 to 75%.

With `O=S(=O)(c1ccccc1-c1ccccc1)N1CCc2c(ncnc2NCC23CC4CC(CC(C4)C2)C3)C1` [Compound 50], the inhibition at 0.1 µM was in the range of 25 to 50%.

Staying with this test, now noted: P2X7; 0.3 μM compound (asterisk symbols); read-out: IL-1β % inhib @ 0.3 μM.
Take `CC12CC3CC(C)(C1)CC(CNc1ncnc4c1CCN(Cc1ccccc1)C4)(C3)C2` [Compound 2]: the inhibition at 0.3 µM is 0 to 25%.

For the compound `CS(=O)(=O)N1CCc2c(ncnc2NCC23CC4CC(CC(C4)C2)C3)C1` [Compound 3], the inhibition at 0.3 µM was in the range of 25 to 50%.

Take `Cc1ccc(S(=O)(=O)N2CCc3c(ncnc3NCC34CC5CC(CC(C5)C3)C4)C2)cc1` [Compound 5]: the inhibition at 0.3 µM lay in the range of 50 to 75%.

`O=S(=O)(c1ccc2ccccc2c1)N1CCc2c(ncnc2NCC23CC4CC(CC(C4)C2)C3)C1` [Compound 6]: the inhibition at 0.3 µM fell in the range of 0 to 25%.

On to `O=S(=O)(c1cccc2cccnc12)N1CCc2c(ncnc2NCC23CC4CC(CC(C4)C2)C3)C1` [Compound 7], for which the inhibition at 0.3 µM was over 75%.

Consider `CCCS(=O)(=O)N1CCc2c(ncnc2NCC23CC4CC(CC(C4)C2)C3)C1` [Compound 8], for which the inhibition at 0.3 µM lay within 50 to 75%.

Regarding `COc1ccc(S(=O)(=O)N2CCc3c(ncnc3NCC34CC5CC(CC(C5)C3)C4)C2)cc1` [Compound 10], the inhibition at 0.3 µM lay within 25 to 50%.

On to `O=S(=O)(c1ccc(Cl)cc1)N1CCc2c(ncnc2NCC23CC4CC(CC(C4)C2)C3)C1` [Compound 11], for which the inhibition at 0.3 µM was 0 to 25%.

With `COc1ccc(S(=O)(=O)N2CCc3c(ncnc3NCC34CC5CC(CC(C5)C3)C4)C2)cc1OC` [Compound 12], the inhibition at 0.3 µM lay within 25 to 50%.

Regarding `O=S(=O)(c1ccc(F)cc1)N1CCc2c(ncnc2NCC23CC4CC(CC(C4)C2)C3)C1` [Compound 13], the inhibition at 0.3 µM lay in the range of 25 to 50%.

In the case of `O=S(=O)(Cc1ccccc1)N1CCc2c(ncnc2NCC23CC4CC(CC(C4)C2)C3)C1` [Compound 14], the inhibition at 0.3 µM was over 75%.

In the case of `O=S(=O)(c1cccc(C(F)(F)F)c1)N1CCc2c(ncnc2NCC23CC4CC(CC(C4)C2)C3)C1` [Compound 15], the inhibition at 0.3 µM fell in the range of 0 to 25%.

For `O=S(=O)(c1ccc(OC(F)(F)F)cc1)N1CCc2c(ncnc2NCC23CC4CC(CC(C4)C2)C3)C1` [Compound 16], the inhibition at 0.3 µM lay within 0 to 25%.

Take `CN1CCOc2cc(S(=O)(=O)N3CCc4c(ncnc4NCC45CC6CC(CC(C6)C4)C5)C3)ccc21` [Compound 17]: the inhibition at 0.3 µM lay within 0 to 25%.

`Cc1nn(C)c(Cl)c1S(=O)(=O)N1CCc2c(ncnc2NCC23CC4CC(CC(C4)C2)C3)C1` [Compound 18]: the inhibition at 0.3 µM fell in the range of 0 to 25%.

For the compound `Cc1c(S(=O)(=O)N2CCc3c(ncnc3NCC34CC5CC(CC(C5)C3)C4)C2)cnn1-c1ccccc1` [Compound 19], the inhibition at 0.3 µM was 50 to 75%.

Regarding `O=S(=O)(c1cccc(OC(F)(F)F)c1)N1CCc2c(ncnc2NCC23CC4CC(CC(C4)C2)C3)C1` [Compound 20], the inhibition at 0.3 µM fell in the range of 25 to 50%.

For the compound `COc1cccc(S(=O)(=O)N2CCc3c(ncnc3NCC34CC5CC(CC(C5)C3)C4)C2)c1` [Compound 21], the inhibition at 0.3 µM lay within 50 to 75%.

Turning to `Cc1nc(S(=O)(=O)N2CCc3c(ncnc3NCC34CC5CC(CC(C5)C3)C4)C2)cn1C` [Compound 22], the inhibition at 0.3 µM fell in the range of 0 to 25%.

In the case of `N#Cc1ccc(S(=O)(=O)N2CCc3c(ncnc3NCC34CC5CC(CC(C5)C3)C4)C2)c(Cl)c1` [Compound 23], the inhibition at 0.3 µM fell in the range of 0 to 25%.

On to `N#Cc1ccc(S(=O)(=O)N2CCc3c(ncnc3NCC34CC5CC(CC(C5)C3)C4)C2)cc1` [Compound 25], for which the inhibition at 0.3 µM was in the range of 25 to 50%.

On to `Cc1noc(C)c1S(=O)(=O)N1CCc2c(ncnc2NCC23CC4CC(CC(C4)C2)C3)C1` [Compound 26], for which the inhibition at 0.3 µM is 50 to 75%.

On to `O=c1ccc2cc(S(=O)(=O)N3CCc4c(ncnc4NCC45CC6CC(CC(C6)C4)C5)C3)ccc2o1` [Compound 28], for which the inhibition at 0.3 µM is 25 to 50%.

For `O=S(=O)(c1ccc(Oc2ccccn2)cc1)N1CCc2c(ncnc2NCC23CC4CC(CC(C4)C2)C3)C1` [Compound 29], the inhibition at 0.3 µM is over 75%.

Regarding `O=S(=O)(c1ccc(Oc2ccncc2)cc1)N1CCc2c(ncnc2NCC23CC4CC(CC(C4)C2)C3)C1` [Compound 31], the inhibition at 0.3 µM was 25 to 50%.

As to `COc1ccc(Oc2ccc(S(=O)(=O)N3CCc4c(ncnc4NCC45CC6CC(CC(C6)C4)C5)C3)cc2)cc1` [Compound 32], the inhibition at 0.3 µM lay in the range of 0 to 25%.

For the compound `O=S(=O)(c1ccc(Oc2ccc(C(F)(F)F)cc2)cc1)N1CCc2c(ncnc2NCC23CC4CC(CC(C4)C2)C3)C1` [Compound 33], the inhibition at 0.3 µM was 0 to 25%.

As for `O=S(=O)(c1cccc(Oc2ccc(Cl)c(Cl)c2)c1)N1CCc2c(ncnc2NCC23CC4CC(CC(C4)C2)C3)C1` [Compound 34], the inhibition at 0.3 µM lay within 0 to 25%.

`COc1ccc(-c2ccc(S(=O)(=O)N3CCc4c(ncnc4NCC45CC6CC(CC(C6)C4)C5)C3)cc2)cc1` [Compound 35]: the inhibition at 0.3 µM was in the range of 0 to 25%.

`O=S(=O)(c1cc(C(F)(F)F)ccc1Cl)N1CCc2c(ncnc2NCC23CC4CC(CC(C4)C2)C3)C1` [Compound 37]: the inhibition at 0.3 µM lay in the range of 25 to 50%.

In the case of `O=S(=O)(Cc1cc(C(F)(F)F)cc(C(F)(F)F)c1)N1CCc2c(ncnc2NCC23CC4CC(CC(C4)C2)C3)C1` [Compound 38], the inhibition at 0.3 µM lay in the range of 0 to 25%.

`O=S(=O)(Cc1ccc(C(F)(F)F)cc1)N1CCc2c(ncnc2NCC23CC4CC(CC(C4)C2)C3)C1` [Compound 39]: the inhibition at 0.3 µM was in the range of 0 to 25%.

For the compound `O=S(=O)(Cc1ccc(F)cc1)N1CCc2c(ncnc2NCC23CC4CC(CC(C4)C2)C3)C1` [Compound 40], the inhibition at 0.3 µM fell in the range of 0 to 25%.

On to `O=S(=O)(Cc1ccc(Cl)c(Cl)c1)N1CCc2c(ncnc2NCC23CC4CC(CC(C4)C2)C3)C1` [Compound 41], for which the inhibition at 0.3 µM lay in the range of 0 to 25%.

In the case of `O=S(=O)(Cc1cc(Cl)cc(Cl)c1)N1CCc2c(ncnc2NCC23CC4CC(CC(C4)C2)C3)C1` [Compound 42], the inhibition at 0.3 µM fell in the range of 25 to 50%.

For the compound `O=S(=O)(Cc1cccc(C(F)(F)F)c1)N1CCc2c(ncnc2NCC23CC4CC(CC(C4)C2)C3)C1` [Compound 43], the inhibition at 0.3 µM lay in the range of 25 to 50%.

Take `O=S(=O)(Cc1ccc(Cl)cc1)N1CCc2c(ncnc2NCC23CC4CC(CC(C4)C2)C3)C1` [Compound 45]: the inhibition at 0.3 µM lay within 25 to 50%.

With `O=S(=O)(c1ccc(OC(F)F)cc1)N1CCc2c(ncnc2NCC23CC4CC(CC(C4)C2)C3)C1` [Compound 46], the inhibition at 0.3 µM is 25 to 50%.

For `O=S(=O)(c1ccccc1Cl)N1CCc2c(ncnc2NCC23CC4CC(CC(C4)C2)C3)C1` [Compound 48], the inhibition at 0.3 µM was over 75%.

With `O=S(=O)(c1ccc(F)c(Cl)c1)N1CCc2c(ncnc2NCC23CC4CC(CC(C4)C2)C3)C1` [Compound 49], the inhibition at 0.3 µM is 50 to 75%.

`O=S(=O)(c1ccccc1C(F)(F)F)N1CCc2c(ncnc2NCC23CC4CC(CC(C4)C2)C3)C1` [Compound 51]: the inhibition at 0.3 µM lay within 0 to 25%.

As for `O=S(=O)(c1ccc(-n2cccn2)cc1)N1CCc2c(ncnc2NCC23CC4CC(CC(C4)C2)C3)C1` [Compound 52], the inhibition at 0.3 µM lay within 0 to 25%.

As for `COc1ccc(S(=O)(=O)N2CCc3c(ncnc3NCC34CC5CC(CC(C5)C3)C4)C2)c(OC)c1` [Compound 53], the inhibition at 0.3 µM is 50 to 75%.

For the compound `Cc1nn(C)c(C)c1S(=O)(=O)N1CCc2c(ncnc2NCC23CC4CC(CC(C4)C2)C3)C1` [Compound 54], the inhibition at 0.3 µM fell in the range of 0 to 25%.
